Assay results reported in ChEMBL document CHEMBL1131144, “N-Substituted 9beta-methyl-5-(3-hydroxyphenyl)morphans are opioid receptor pure antagonists” (J Med Chem, 1998).

Legend:
[1] = target: T1, Kappa-type opioid receptor (Cavia porcellus, UniProt P41144); test: Binding activity against Opioid receptor kappa 1 using [3H]U-69593 as radioligand in guinea pig membranes.; type: cell membranes
Mu-type opioid receptor [2] = target: Mu-type opioid receptor (Rattus norvegicus, UniProt P33535); test: Binding activity against Opioid receptor mu 1 using [3H]DAMGO as radioligand in rat brain membranes.; type: cell membranes
[3] = target: Delta-type opioid receptor (Rattus norvegicus, UniProt P33533); test: Binding activity against Opioid receptor delta 1 using [3H]DADLE as radioligand in rat brain membranes.; type: cell membranes
[4] = target: T1, Kappa-type opioid receptor; test: Inhibition of [35S]GTP-gamma-S, binding in guinea pig caudate stimulated by U69,593 in Opioid receptor kappa 1; type: functional
Mu-type opioid receptor [5] = target: Mu-type opioid receptor (Cavia porcellus, UniProt P97266); test: Inhibition of [35S]GTP-gamma-S, binding in guinea pig caudate stimulated by DAMGO (Opioid receptor mu 1); type: functional
Mu-type opioid receptor [6] = target: Mu-type opioid receptor (Homo sapiens, UniProt P35372); test: Binding affinity against Opioid receptor mu 1 using [3H]naloxone as radioligand.
[7] = target: Kappa-type opioid receptor (Homo sapiens, UniProt P41145); test: Binding affinity against Opioid receptor kappa 1 using [3H]ethylketocyclazocine as radioligand.
[8] = target: T1, Kappa-type opioid receptor; test: Binding activity against kOpioid receptor kappa 1 using [3H]U-69593 as radioligand in guinea pig membranes.; type: cell membranes

T1 sequence (P41144 whole entry): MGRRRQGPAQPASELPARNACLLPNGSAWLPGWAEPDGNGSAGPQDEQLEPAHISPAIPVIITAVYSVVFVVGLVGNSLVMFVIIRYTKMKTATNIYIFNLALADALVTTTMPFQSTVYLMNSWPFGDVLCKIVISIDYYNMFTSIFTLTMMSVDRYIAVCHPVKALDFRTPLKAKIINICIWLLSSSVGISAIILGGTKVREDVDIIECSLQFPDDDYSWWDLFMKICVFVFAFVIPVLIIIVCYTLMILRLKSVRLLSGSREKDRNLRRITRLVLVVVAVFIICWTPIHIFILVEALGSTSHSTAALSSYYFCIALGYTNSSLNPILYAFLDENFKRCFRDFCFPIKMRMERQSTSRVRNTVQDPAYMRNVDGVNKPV
Chain of Delta-type opioid receptor (P33533 whole entry): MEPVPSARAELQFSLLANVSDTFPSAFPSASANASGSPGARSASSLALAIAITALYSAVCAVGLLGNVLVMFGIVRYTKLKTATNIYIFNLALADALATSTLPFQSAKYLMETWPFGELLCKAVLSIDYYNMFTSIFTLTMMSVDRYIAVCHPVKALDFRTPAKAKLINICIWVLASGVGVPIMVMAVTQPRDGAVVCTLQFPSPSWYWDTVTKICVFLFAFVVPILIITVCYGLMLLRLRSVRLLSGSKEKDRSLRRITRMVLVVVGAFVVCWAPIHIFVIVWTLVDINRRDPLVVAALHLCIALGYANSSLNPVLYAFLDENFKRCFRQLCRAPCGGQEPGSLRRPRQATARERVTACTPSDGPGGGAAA
Chain of Mu-type opioid receptor (Rattus norvegicus, UniProt P33535) (P33535 whole entry): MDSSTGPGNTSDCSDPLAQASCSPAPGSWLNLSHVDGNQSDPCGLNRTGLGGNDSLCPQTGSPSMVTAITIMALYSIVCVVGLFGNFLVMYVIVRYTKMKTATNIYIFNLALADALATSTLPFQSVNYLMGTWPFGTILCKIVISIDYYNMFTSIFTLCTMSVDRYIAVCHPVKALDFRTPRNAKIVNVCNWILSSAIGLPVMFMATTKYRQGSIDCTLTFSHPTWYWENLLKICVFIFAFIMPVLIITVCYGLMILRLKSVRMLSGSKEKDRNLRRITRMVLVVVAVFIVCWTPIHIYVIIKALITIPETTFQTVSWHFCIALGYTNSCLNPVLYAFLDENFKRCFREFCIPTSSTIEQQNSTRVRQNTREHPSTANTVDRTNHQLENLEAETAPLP
Chain of Mu-type opioid receptor (Cavia porcellus, UniProt P97266) (P97266 whole entry): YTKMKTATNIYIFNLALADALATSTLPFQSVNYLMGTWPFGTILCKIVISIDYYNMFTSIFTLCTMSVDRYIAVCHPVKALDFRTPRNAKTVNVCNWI
Chain of Kappa-type opioid receptor (Homo sapiens, UniProt P41145) (P41145 whole entry): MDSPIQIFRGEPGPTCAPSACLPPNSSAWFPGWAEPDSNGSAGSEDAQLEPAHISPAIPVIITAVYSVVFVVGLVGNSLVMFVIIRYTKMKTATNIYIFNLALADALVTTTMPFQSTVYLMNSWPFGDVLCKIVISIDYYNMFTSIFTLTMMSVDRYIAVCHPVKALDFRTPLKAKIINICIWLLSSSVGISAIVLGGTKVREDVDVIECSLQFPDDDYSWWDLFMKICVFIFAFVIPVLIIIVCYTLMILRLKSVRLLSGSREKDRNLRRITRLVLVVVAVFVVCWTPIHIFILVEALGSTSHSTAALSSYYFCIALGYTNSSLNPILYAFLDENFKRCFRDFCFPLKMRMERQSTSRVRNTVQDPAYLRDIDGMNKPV
Chain of Mu-type opioid receptor (Homo sapiens, UniProt P35372) (P35372 whole entry): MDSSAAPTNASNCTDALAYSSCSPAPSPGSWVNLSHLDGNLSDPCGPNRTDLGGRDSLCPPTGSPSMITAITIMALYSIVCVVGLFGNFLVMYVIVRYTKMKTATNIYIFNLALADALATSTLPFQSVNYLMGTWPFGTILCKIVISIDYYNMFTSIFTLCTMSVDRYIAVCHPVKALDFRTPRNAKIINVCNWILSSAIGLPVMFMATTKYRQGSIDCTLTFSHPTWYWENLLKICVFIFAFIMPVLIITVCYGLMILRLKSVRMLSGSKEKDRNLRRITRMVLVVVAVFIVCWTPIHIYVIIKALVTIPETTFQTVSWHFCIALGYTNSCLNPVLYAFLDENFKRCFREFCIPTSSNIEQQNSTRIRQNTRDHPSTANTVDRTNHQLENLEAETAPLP

C[C@H]1C2CCCC1(c1cccc(O)c1)CCN2C (some centres not stated)
Ki [1]: 816 nM
Ki (Mu-type opioid receptor [2]): 166 nM
Ki [3]: > 10000 nM
Ki [4]: 105 nM
Ki (Mu-type opioid receptor [5]): 21.3 nM

C[C@H]1CN(C)CC[C@@]1(C)c1cccc(O)c1
Ki (Mu-type opioid receptor [6]): 80 nM
Ki [7]: 833 nM

C[C@H]1C2CCCC1(c1cccc(O)c1)CCN2CCc1ccccc1 (some centres not stated)
Ki [8]: 14.5 nM
Ki (Mu-type opioid receptor [2]): 3.11 nM
Ki [3]: 272 nM
Ki [4]: 1.34 nM
Ki (Mu-type opioid receptor [5]): 0.338 nM
